Experimental data: BindingDB's records for doi:10.1021/jm960093o (Agouron Pharmaceuticals, 1996)
pIC50: −log10 of the molar value.

biological target: T1, Dimer of Gag-Pol polyprotein [489-587] (Human immunodeficiency virus 1, UniProt P12497); experiment: Protease Inhibition Assay; conditions: pH 5.6; 37 °C
T1 construct: 489-587
Protocol: Protease activity was measured by continuous chromogenic assay. The chromogenic peptide His-Lys-Ala-Arg-Val-Leu- (p-NO2-Phe)-Glu-Ala-Nleu-Ser (Bachem) was used as a substrate. Reactions were followed by the decrease of absorbance at 300 nm measured by spectrophotometer. Experimental results were analyzed by the nonlinear regression analysis, using a mathematical model for tight binding inhibitors.

| Compound | pIC50 |
| --- | --- |
| CC(C)N1CCC(CC(O)CCc2ccc3ccccc3c2C(=O)NC(C)(C)C)=C(C(=O)NC(C)(C)C)C1 (centres undefined) [N-tert-butyl-4-{4-[1-(tert-butylcarbamoyl)naphthalen-2-yl]-2-hydroxybutyl}-1-(propan-2-yl)-1,2,5,6-tetrahydropyridine-3-carboxamide] | 4.15 |
| CC(C)(C)NC(=O)c1ccccc1SCC(O)c1ccccc1C(=O)NC(C)(C)C (centres undefined) [N-tert-butyl-2-({2-[2-(tert-butylcarbamoyl)phenyl]-2-hydroxyethyl}sulfanyl)benzamide] | < 3.70 |
| CC(C)(C)NC(=O)c1ccccc1CC(O)CSc1ccccc1NC(=O)C(C)(C)C (centres undefined) [N-tert-butyl-2-(3-{[2-(2,2-dimethylpropanamido)phenyl]sulfanyl}-2-hydroxypropyl)benzamide] | < 3.70 |
| CC(C)(C)NC(=O)c1ccccc1NCC(O)Cc1ccc2ccccc2c1C(=O)NC(C)(C)C (centres undefined) [N-tert-butyl-2-(3-{[2-(tert-butylcarbamoyl)phenyl]amino}-2-hydroxypropyl)naphthalene-1-carboxamide] | 3.92 |
